# Source: patent EP0745597A2, “Novel melatonergic indanyl piperazines or homopiperazines” (BRISTOL-MYERS SQUIBB COMPANY, priority 1995, dated 1996)
# Target: T1, human ML1B receptor (Homo sapiens, UniProt P49286)
# T1 construct: host or cells: NIH 3T3 cells, stably transfected; membrane homogenates
# T1 sequence (P49286 1-362): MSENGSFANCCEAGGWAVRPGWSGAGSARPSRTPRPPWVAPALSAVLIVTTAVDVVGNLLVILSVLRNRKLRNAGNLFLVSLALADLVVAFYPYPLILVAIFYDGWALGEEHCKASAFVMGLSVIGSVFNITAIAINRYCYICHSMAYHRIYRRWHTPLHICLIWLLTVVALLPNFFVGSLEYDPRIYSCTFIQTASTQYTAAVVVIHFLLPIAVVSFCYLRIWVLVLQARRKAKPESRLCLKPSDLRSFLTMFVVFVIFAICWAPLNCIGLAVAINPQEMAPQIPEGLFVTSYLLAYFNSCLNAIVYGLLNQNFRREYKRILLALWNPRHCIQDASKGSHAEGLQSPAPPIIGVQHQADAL
# Experiment: Measurement of binding to melatonergic receptors (2-[125I]-iodomelatonin, membranes of transfected NIH 3T3 cells)
# Conditions: 2-[125I]-Iodomelatonin 200 pM, 37 °C for 1 hour, NIH 3T3 cells stably transfected with the human ML1B receptor; read-out: Melatonin Binding
# Procedure: The melatonergic binding affinities of various compounds of Formula I were determined by the method of Reppert, S. M., Weaver, D. R., and Ebisawa, R. (Neuron, Volume 13, 1177-1185, 1994). The assays were incubated at 37 °C for 1 hour, and the reaction was terminated by filtration. The filters were washed with wash buffer. […] The reagents, membrane and other techniques used in the melatonergic binding assays are more fully described below: • 1. Reagents: • (a) 50 mM Tris buffer containing 12.5 mM MgCl2, and 2mM EDTA, pH 7.4 at 37 °C. • (b) Wash buffer: 20 mM Tris base containing 2 mM MgCl2. pH 7.4 at room temperature. • (c) Melatonin (10^-5 M final concentration). • (d) 2-[^125I]-Iodomelatonin, 200 pM final concentration Source: NEN • 2. Membrane preparation: NIH 3T3 cells stably transfected with the human ML1B receptor were obtained from S.M. Reppert and maintained. Cells were pelleted when confluent. The supernatant was discarded and the pellets frozen. For preparing membrane homogenates, the pellets are thawed on ice and resuspended in TME buffer, Tris base, MgCl2, EDTA (pH 7.4 at 37 °C ), supplemented with aprotinin, leupeptin, and […]. The cells were then homogenized and centrifuged. The resulting pellet was resuspended with a Dounce homogenizer in TME and frozen. At assay, a small aliquot was thawed on ice and resuspended in TME buffer. […] These compounds are considered active.
row,SMILES,IC50
1,"COc1ccc2c(c1)C(N1CCN(C(=O)c3sccc3Br)CC1)CC2 (single isomer, unassigned; (-)) [(-)1-[(3-Bromothien-2-yl)carbonyl]-4-(6-Methoxy-indan-1-yl)piperazine]",< 10 nM
2,"CCC(C)(C)C(=O)N1CCN(C2CCc3ccc(OC)cc32)CC1 (single isomer, unassigned; (-)) [(-)-1-(2,2-Dimethyl-butanoyl)-4-(6-methoxy-indan-1-yl)piperazine]",10 to 100 nM
3,CCCC(=O)N1CCN(C2CCCc3ccc(OC)cc32)CC1 (stereo not shown) [1-(1-Butanoyl)-4-(7-methoxy-tetralin-1-yl)piperazine],10 to 100 nM
4,"COc1ccc2c(c1)C(N1CCN(C(=O)C(C)(C)C)CC1)CC2 (stereo not shown) [1-(2,2-dimethyl-propanoyl)-4-(6-methoxy-indan-1-yl)piperazine]",10 to 100 nM
5,COc1ccc2c(c1)C(N1CCN(C(=O)C3CCC3)CC1)CC2 (stereo not shown) [1-(Cyclobutylcarbonyl)-4-(6-methoxy-indan-1-yl)piperazine],< 10 nM
6,COc1ccc2c(c1)C(N1CCN(C(=O)C3CCCC3)CC1)CC2 (stereo not shown) [1-(Cyclopentylcarbonyl)-4-(6-methoxy-indan-1-yl)piperazine],10 to 100 nM
7,COc1cc2c(cc1F)CCC2N1CCN(C(=O)C2CC2)CC1 (stereo not shown) [1-(Cyclopropylcarbonyl)-4-(5-fluoro-6-methoxy-indan-1-yl)piperazine],10 to 100 nM
8,CCOc1ccc2c(c1)C(N1CCN(C(=O)C3CC3)CC1)CC2 (stereo not shown) [1-(Cyclopropylcarbonyl)-4-(6-ethoxy-indan-1-yl)piperazine],< 10 nM
9,CCc1ccc2c(c1)C(N1CCN(C(=O)C3CC3)CC1)CC2 (stereo not shown) [1-(Cyclopropylcarbonyl)-4-(6-ethyl-indan-1-yl)piperazine],100 to 250 nM
10,COc1ccc2c(c1)C(N1CCCN(C(=O)C3CC3)CC1)CC2 (stereo not shown) [1-(Cyclopropylcarbonyl)-4-(6-methoxy-indan-1-yl)homopiperazine],10 to 100 nM
11,COc1ccc2c(c1)C(N1CCN(C(=O)C3CC3)CC1)CC2 (stereo not shown) [1-(Cyclopropylcarbonyl)-4-(6-methoxy-indan-1-yl)piperazine],< 10 nM
12,CCCCCCCCCOc1ccc2c(c1)C(N1CCN(C(=O)C3CC3)CC1)CC2 (stereo not shown) [1-(Cyclopropylcarbonyl)-4-(6-nonyloxy-indan-1-yl)piperazine],100 to 250 nM
13,COc1ccc2c(c1)C(N1CCN(C(=O)C3CC3)CC1)CCC2 (stereo not shown) [1-(Cyclopropylcarbonyl)-4-(7-methoxy-tetralin-1-yl)piperazine],100 to 250 nM
14,O=C(C1CC1)N1CCN(C2CCc3ccccc32)CC1 (stereo not shown) [1-(Cyclopropylcarbonyl)-4-(indan-1-yl)piperazine],100 to 250 nM
15,CCCOc1ccc2c(c1)C(N1CCN(C(=O)C3CC3)CC1)CC2 (stereo not shown) [1-(Cyclopropylcarbonyl)-4-[6-(1-propyloxy)indan-1-yl]piperazine],10 to 100 nM
16,C=CC(=O)N1CCN(C2CCc3ccc(OC)cc32)CC1 (stereo not shown) [1-(Ethenylcarbonyl)-4-(6-methoxy-indan-1-yl)piperazine],10 to 100 nM
17,CCOC(=O)N1CCN(C2CCc3ccc(OC)cc32)CC1 (stereo not shown) [1-(Ethoxycarbonyl)-4-(6-methoxy-indan-1-yl)piperazine],100 to 250 nM
18,COCC(=O)N1CCN(C2CCc3ccc(OC)cc32)CC1 (stereo not shown) [1-(Methoxyacetyl)-4-(6-methoxy-indan-1-yl)piperazine],10 to 100 nM

# Further lines, results first:
row,IC50,SMILES
1,100 to 250 nM,"COc1ccc2c(c1)C(N1CCN(C(=O)c3ccccc3Cl)CC1)CC2 (single isomer, unassigned; (-)) [(-)-1-(2-Chlorobenzoyl)-4-(6-methoxy-indan-1-yl)piperazine]"
2,< 10 nM,"COc1ccc2c(c1)C(N1CCN(C(=O)c3ccccc3O)CC1)CC2 (single isomer, unassigned; (-)) [(-)-1-(2-Hydroxybenzoyl)-4-(6-methoxy-indan-1-yl)piperazine]"
3,100 to 250 nM,"COc1ccc2c(c1)C(N1CCN(C(=O)c3ccccc3)CC1)CC2 (single isomer, unassigned; (-)) [(-)-1-(Benzoyl)-4-(6-methoxy-indan-1-yl)piperazine]"
4,10 to 100 nM,"COc1ccc2c(c1)C(N1CCN(C(=O)CCl)CC1)CC2 (single isomer, unassigned; (-)) [(-)-1-(Chloroacetyl)-4-(6-methoxy-indan-1-yl)piperazine]"
5,100 to 250 nM,"COc1ccc2c(c1)C(N1CCN(C(=O)C3(C)CCCCC3)CC1)CC2 (single isomer, unassigned; (-)) [(-)-1-[(1-Methylcyclohexyl)carbonyl]-4-(6-methoxy-indan-1-yl)piperazine]"
6,100 to 250 nM,"COc1ccc2c(c1)C(N1CCN(C(=O)c3c[nH]c4ccccc34)CC1)CC2 (single isomer, unassigned; (-)) [(-)-1-[(1H-indol-3-yl)carbonyl]-4-(6-methoxy-indan-1-yl)piperazine]"
7,10 to 100 nM,"COc1ccc2c(c1)C(N1CCN(C(=O)C=C(C)C)CC1)CC2 (single isomer, unassigned; (-)) [(-)-1-[(2,2-Dimethyl-ethenyl)carbonyl]-4-(6-methoxy-indan-1-yl)piperazine]"
8,< 10 nM,"COc1ccc2c(c1)C(N1CCN(C(=O)c3sccc3Cl)CC1)CC2 (single isomer, unassigned; (-)) [(-)-1-[(3-Chlorothien-2-yl)carbonyl]-4-(6-methoxy-indan-1-yl)-1-piperazine]"
9,10 to 100 nM,"COc1ccc2c(c1)C(N1CCN(C(=O)c3ccoc3)CC1)CC2 (single isomer, unassigned; (-)) [(-)-1-[(3-Furanyl)carbonyl]-4-(6-methoxy-indan-1-yl)piperazine]"
10,100 to 250 nM,"COc1ccc2c(c1)C(N1CCN(C(=O)c3cc(Br)c(Br)s3)CC1)CC2 (single isomer, unassigned; (-)) [(-)-1-[(4,5-Dibromo-thien-2-yl)carbonyl]-4-(6-methoxy-indan-1-yl)piperazine]"
11,10 to 100 nM,"COc1ccc2c(c1)C(N1CCN(C(=O)c3ccc(Br)o3)CC1)CC2 (single isomer, unassigned; (-)) [(-)-1-[(5-Bromo-furan-2-yl)carbonyl]-4-(6-methoxy-indan-1-yl)piperazine]"
12,100 to 250 nM,"COc1ccc2c(c1)C(N1CCN(C(=O)c3ccc(Cl)s3)CC1)CC2 (single isomer, unassigned; (-)) [(-)-1-[(5-Chloro-thien-2-yl)carbonyl]-4-(6-methoxy-indan-1-yl)piperazine]"
13,< 10 nM,"COc1ccc2c(c1)C(N1CCN(C(=O)CSC)CC1)CC2 (single isomer, unassigned; (-)) [(-)-4-(6-Methoxy-indan-1-yl)-1-(2-methylthioacetyl)piperazine]"
14,10 to 100 nM,"CCC(=O)C(=O)N1CCN(C2CCc3ccc(OC)cc32)CC1 (single isomer, unassigned; (-)) [(-)-4-(6-Methoxy-indan-1-yl)-1-(2-oxo-butanoyl)piperazine]"
15,100 to 250 nM,"C=CCCC(=O)N1CCN(C2CCc3ccc(OC)cc32)CC1 (single isomer, unassigned; (-)) [(-)-4-(6-Methoxy-indan-1-yl)-1-(4-pentenoyl)piperazine]"
16,100 to 250 nM,"C=CCCCCCCCCC(=O)N1CCN(C2CCc3ccc(OC)cc32)CC1 (single isomer, unassigned; (-)) [(-)-4-(6-Methoxy-indan-1-yl)-1-(10-undecenoyl)piperazine]"
17,10 to 100 nM,"COc1ccc2c(c1)C(N1CCN(C(=O)c3csnn3)CC1)CC2 (single isomer, unassigned; (-)) [(-)-4-(6-Methoxy-indan-1-yl)-1-[(1,2,3-thiadiazol-4-yl)carbonyl]-piperazine]"
18,< 10 nM,"COc1ccc2c(c1)C(N1CCN(C(=O)c3cccn3C)CC1)CC2 (single isomer, unassigned; (-)) [(-)-4-(6-Methoxy-indan-1-yl)-1-[(1-methyl-pyrrol-2-yl)carbonyl]piperazine]"
19,10 to 100 nM,"COc1ccc2c(c1)C(N1CCN(C(=O)c3ccc[nH]3)CC1)CC2 (single isomer, unassigned; (-)) [(-)-4-(6-Methoxy-indan-1-yl)-1-[(1H-pyrrol-2-yl)carbonyl]-piperazine]"
20,< 10 nM,"COc1ccc2c(c1)C(N1CCN(C(=O)c3occc3C)CC1)CC2 (single isomer, unassigned; (-)) [(-)-4-(6-Methoxy-indan-1-yl)-1-[(3-methyl-furan-2-yl)carbonyl]piperazine]"
21,< 10 nM,"COc1ccc2c(c1)C(N1CCN(C(=O)c3ccsc3)CC1)CC2 (single isomer, unassigned; (-)) [(-)-4-(6-Methoxy-indan-1-yl)-1-[(3-thienyl)carbonyl]piperazine]"
22,< 10 nM,"CCNC(=O)N1CCN(C2CCc3ccc(OC)cc32)CC1 (single isomer, unassigned; (-)) [(-)-N-Ethyl-4-(6-methoxy-indan-1-yl)piperazine-1-carboxamide]"
